Data published in US11572372B2, “Anti-HBVtetrahydroisoxazolo[4,3-c]pyridine compounds” (CHIA TAI TIANQING PHARMACEUTICAL GROUP CO., LTD., priority 2017, dated 2023).
Read-outs that look alike come from different tables or passages of the source.

Columns and labels:
[1] = Pharmacokinetic study for mouse (single intravenous or gavage administration); assay type: in vivo, mice; details: for clearance / half-life / AUC(0-t) / Vd / Cmax / Tmax: plasma; for AUC(0-t): read-out: AUC0-24 h; for Vd: read-out: Vdss
Experimental: This experiment aims to evaluate the pharmacokinetic behavior of the compounds after a single intravenous or gavage administration in mice. As for the intravenous administration, the compounds were formulated into 0.5 mg/mL clear solutions, vehicle: 5% DMSO/5% 12-hydroxy stearate (solutol)/90% water; as for the gavage administration, the compounds were formulated into 2 mg/mL suspensions, vehicle: 0.5% sodium carboxymethylcellulose/0.2% Tween 80/99.3% water.
The concentrations of the compounds in plasma were determined by high-performance liquid chromatography-tandem mass spectrometry (LC-MS/MS). The retention time, chromatogram acquisition and integration of the chromatograms of the compounds and the internal standard (diclofenac) were processed using the software Analyst (Applied Biosystems), and data statistics were processed using the software Watson LIMS (Thermo Fisher Scientific) or Analyst (Applied Biosystems). The concentration unit of the analyte in the sample is ng/mL, 3 significant digits were retained, and all the values represented by percentages (e.g., % deviation and % coefficient of variation, etc.) have one decimal place. Each calibration curve contains at least 6 concentration levels. The calibration standard samples were formulated using stock solutions from different sources from the quality control samples. If the deviation between the calculated concentration of a calibration standard sample and the indicated value exceeds ±15.0% (the lower limit of quantitation exceeds ±20.0%), such standard sample should be excluded in regression analysis. The excluded calibration standard samples should be less than 25%, and each calibration curve contains at least 6 calibration standard samples that meet the acceptable standard. If the calibration standard samples at the lower and upper limits of quantification need to be excluded, the upper and lower limits of quantification of this batch of analytes will be increased and decreased accordingly.
Plasma concentrations were processed using a non-compartmental model of the WinNonlin™ Version 6.3 (Pharsight, Mountain View, Calif.) pharmacokinetic software, and pharmacokinetic parameters were calculated using the linear logarithmic trapezoidal method. The pharmacokinetic parameters to be calculated include, but are not limited to (if the data is not allowed), T1/2, Vdss, CL, AUC0-24h of the intravenous group; Cmax, Tmax, AUC0-24h and bioavailability (F %) of the oral gavage group.

[2] = test system: HBV DNA in HepG2.2.15 cells; experiment: In vitro anti-HBV activity assay (HBV DNA in HepG2.2.15 supernatant, qPCR); assay type: cell-based; details: Hepatitis B virus, HepG2.2.15, 192 h; inhibition of HBV DNA in supernatant, 8 days culture
Experimental: 1) 100 μL of HepG2.2.15 cells were seeded at a number of 1.2×10^5 cells per well into a 96-well cell culture plate, and then the cells were cultured in a 37° C. incubator with 5% carbon dioxide (CO2) overnight. On day 2, the compounds to be tested were diluted with DMSO in 3-fold gradient to eight concentrations in total. Then the compounds were diluted 100-fold with culture medium, and 100 μL of the diluted compounds were taken and added to the cell-containing plate in a final volume of 200 μL, and the final concentration of DMSO was 0.5%, and two duplicate wells were used. The cells were cultured in a 37° C. incubator with 5% CO2 for 3 days. On day 5, the solutions in the cell culture plate were replaced with fresh culture medium containing the same concentrations of compounds. When culture was performed for 8 days, cell culture plate supernatant was collected for the extraction of HBV DNA.
2) Detection of HBV DNA by real-time quantitative PCR: the total DNA in the supernatant was extracted with QIAamp 96 DNA Blood Kit, and the content of HBV DNA was detected by quantitative PCR using HBV specific primers and probes. 20 μL PCR pre-mixed solution and 5 μL HBV DNA sample or HBV plasmid standard sample were added to a quantitative PCR plate for reaction. The HBV plasmid standard sample was diluted in 10-fold gradient to seven concentrations from 10^7 to 10 copies/μL. The quantitative PCR reaction procedure was as follows: pre-denaturation at 95° C. for 10 minutes; denaturation at 95° C. for 15 seconds, reaction at 60° C. for 1 minute, and this cycle was repeated 40 times. The inhibition rate of each well against HBV DNA was calculated according to the following equation, and the inhibition rate data of the compounds were subjected to a non-linear fitting analysis using GraphPad Prism software to obtain EC50 values of the compounds. HBV DNA inhibition rate %=(1−copy number of HBV DNA of the sample/copy number of HBV DNA of DMSO control)*100% The assay results are shown in Table 1 below.

HBV [3] = experiment: In vivo activity assay of HBV DNA in mouse plasmid model of tail vein high-pressure injection (Example 6); parameters: species or system female BABL/c mice; details: 30 mg/Kg, gavage, twice a day
Experimental: (§1) The purpose of this study was to test the inhibitory effect of the compound (Example 6) against HBV in mice through a mouse model of high-pressure tail vein injection. In this experiment, female BABL/c mice were used, and the mice were 6-7 weeks old. The HBV plasmid DNA was extracted by using pAAV2-HBV 1.3 mer with Qiagen EndoFree Plasmid Giga kit at a concentration of 1000 ng/μL. The resulting solution was diluted with normal saline before use and stored at 4° C. until use.
100 μL of whole blood was taken from each mouse approximately 4 hours after the first administration On days 1, 3, and 5, and the whole blood was collected into a tube containing sodium heparin, centrifuged at 4° C. at 7000 rpm for 10 minutes, and the supernatant was taken to obtain plasma. The plasma was stored in a refrigerator at −80° C. and transported to an analytical laboratory for testing under dry ice freezing condition.
1) DNA in plasma was extracted, and the experimental procedure was carried out with reference to the instruction for QIAamp 96 DNA Blood Kit.
A qPCR reaction mixture was formulated (see Table 6). The qPCR reaction mixture, sample and standard sample were added to a 96-well reaction plate. The standard sample was plasmid DNA containing the full-length sequence of type D HBV. The standard sample was diluted from 10^7 copies/μL in 10-fold gradient to successively obtain 10^6˜10^1 copies/μL of DNA standard samples. PCR reaction: 95° C., 10 min; 95° C., 15 seconds; 60° C., 1 minute; 40 cycles.
Liver tissue was taken and homogenized with a tissue grinder. After centrifugation, the supernatant was transferred to a new centrifuge tube and digested with proteinase K digestion solution for 3 hours. The resulting mixture was cooled, and then RNAse A was added thereto to incubate for 30 minutes. The RNase A-treated mixture was extracted twice with an equal volume of phenol chloroform isoamyl alcohol to remove residual protein. The supernatant was transferred to a new centrifuge tube, and isopropanol was added thereto to precipitate the DNA. The DNA precipitation was washed twice with 70% ethanol. The precipitation was then air-dried and TE (10 mM Tris-HCl, pH 8.0, 1 mM EDTA) was added thereto to dissolve the DNA.
The DNA concentrations were measured with Nanodrop and adjusted to 10 ng/μL for all the samples. 5 μL samples were added to the quantitative PCR reaction system for quantitative PCR.
HBV DNA content=DNA content detected by HBV primer-DNA content detected by pAAV2 primer.

HBV [4] = experiment: In vivo activity assay of HBV DNA in mouse plasmid model of tail vein high-pressure injection (Example 23); parameters: species or system female BABL/c mice; details: 60 mg/Kg, gavage
Experimental: as §1, with “23)” for “6)”

C[C@H]1Cc2noc(-c3ccc(F)cn3)c2CN1C(=O)Nc1cc(F)c(F)c(F)c1 [Example 1]
F ([1]; oral gavage, 10 mg/Kg): 76.1% | clearance ([1]; intravenous injection, 1 mg/Kg): 5.8 mL/min/kg | half-life ([1]; intravenous injection, 1 mg/Kg): 5.62 h | AUC(0-t) ([1]; intravenous injection, 1 mg/Kg): 6.71 µM·h | Vd ([1]; intravenous injection, 1 mg/Kg): 2.77 L/kg | Cmax ([1]; oral gavage, 10 mg/Kg): 4.26 µM | Tmax ([1]; oral gavage, 10 mg/Kg): 1 h | AUC(0-t) ([1]; oral gavage, 10 mg/Kg): 47.2 µM·h | EC50 [2]: 5.3 nM

C[C@H]1Cc2noc(-c3ccccc3)c2CN1C(=O)Nc1cc(F)c(F)c(F)c1 [Example 2]
EC50 [2]: 29.3 nM

C[C@H]1Cc2noc(-c3ccccc3F)c2CN1C(=O)Nc1cc(F)c(F)c(F)c1 [Example 3]
EC50 [2]: 9 nM

C[C@H]1Cc2noc(-c3ccc(F)cc3)c2CN1C(=O)Nc1cc(F)c(F)c(F)c1 [Example 5]
EC50 [2]: 24.7 nM

C[C@H]1Cc2noc(-c3ccc(F)cc3F)c2CN1C(=O)Nc1cc(F)c(F)c(F)c1 [Example 6]
F ([1]; oral gavage, 10 mg/Kg): 58.4% | clearance ([1]; intravenous injection, 1 mg/Kg): 2.84 mL/min/kg | half-life ([1]; intravenous injection, 1 mg/Kg): 9.31 h | AUC(0-t) ([1]; intravenous injection, 1 mg/Kg): 11.4 µM·h | Vd ([1]; intravenous injection, 1 mg/Kg): 2.33 L/kg | Cmax ([1]; oral gavage, 10 mg/Kg): 4.94 µM | Tmax ([1]; oral gavage, 10 mg/Kg): 0.5 h | AUC(0-t) ([1]; oral gavage, 10 mg/Kg): 66.7 µM·h | EC50 [2]: 4.9 nM | Log HBV DNA mean value (HBV [3]; liver tissue after 7 days of administration, solvent control 5.67): 3.09 copy number/μL | Log HBV DNA mean value (HBV [3]; plasma, Day 1, solvent control 2.22, Log(LLOQ) = 1.60): 2.23 copy number/μL | Log HBV DNA mean value (HBV [3]; plasma, Day 3, solvent control 4.51, Log(LLOQ) = 1.60): 1.74 copy number/μL | Log HBV DNA mean value (HBV [3]; plasma, Day 5, solvent control 5.01, Log(LLOQ) = 1.60): 2.02 copy number/μL | Log HBV DNA mean value (HBV [3]; plasma, Day 7, solvent control 3.30, Log(LLOQ) = 1.60): 1.85 copy number/μL

COc1cccc(-c2onc3c2CN(C(=O)Nc2cc(F)c(F)c(F)c2)[C@@H](C)C3)c1 [Example 8]
EC50 [2]: 37.3 nM

COc1ccc(-c2onc3c2CN(C(=O)Nc2cc(F)c(F)c(F)c2)[C@@H](C)C3)cc1 [Example 9]
EC50 [2]: 10.5 nM

C[C@H]1Cc2noc(-c3ccc(Cl)cc3)c2CN1C(=O)Nc1cc(F)c(F)c(F)c1 [Example 12]
EC50 [2]: 68.8 nM

C[C@H]1Cc2noc(-c3cnccn3)c2CN1C(=O)Nc1cc(F)c(F)c(F)c1 [Example 13]
EC50 [2]: 58.9 nM

C[C@H]1Cc2noc(-c3cscn3)c2CN1C(=O)Nc1cc(F)c(F)c(F)c1 [Example 15]
EC50 [2]: 6.7 nM

C[C@H]1Cc2noc(-c3nccs3)c2CN1C(=O)Nc1cc(F)c(F)c(F)c1 [Example 16]
EC50 [2]: 24.6 nM

C[C@H]1Cc2noc(-c3ccsn3)c2CN1C(=O)Nc1cc(F)c(F)c(F)c1 [Example 18]
EC50 [2]: 12.2 nM

C[C@H]1Cc2noc(-c3ccc(F)cc3F)c2CN1C(=O)Nc1ccc(F)c(C#N)c1 [Example 19]
EC50 [2]: 10.4 nM

C[C@H]1Cc2noc(-c3ccc(F)cc3F)c2CN1C(=O)Nc1ccc(F)c(Cl)c1 [Example 20]
EC50 [2]: 8.66 nM

Cc1cc(NC(=O)N2Cc3c(noc3-c3ccc(F)cc3F)C[C@@H]2C)ccc1F [Example 21]
EC50 [2]: 5.58 nM

C[C@H]1Cc2noc(-c3ccc(F)cc3F)c2CN1C(=O)Nc1ccnc(Cl)c1 [Example 22]
EC50 [2]: 35.2 nM

C[C@H]1Cc2noc(-c3ncccn3)c2CN1C(=O)Nc1ccc(F)c(C#N)c1 [Example 23]
F ([1]; oral gavage, 3 mg/Kg): 55.3% | clearance ([1]; intravenous injection, 1 mg/Kg): 4.36 mL/min/kg | half-life ([1]; intravenous injection, 1 mg/Kg): 3.03 h | AUC(0-t) ([1]; intravenous injection, 1 mg/Kg): 10 µM·h | Vd ([1]; intravenous injection, 1 mg/Kg): 1.09 L/kg | Cmax ([1]; oral gavage, 3 mg/Kg): 3.4 µM | Tmax ([1]; oral gavage, 3 mg/Kg): 0.5 h | AUC(0-t) ([1]; oral gavage, 3 mg/Kg): 16.7 µM·h | EC50 [2]: 25.4 nM | Log HBV DNA mean value (HBV [4]; liver tissue after 7 days of administration, BID, solvent control 6.01): 4.50 copy number/μL | Log HBV DNA mean value (HBV [4]; liver tissue after 7 days of administration, QD, solvent control 6.01): 5.18 copy number/μL | Log HBV DNA mean value (HBV [4]; plasma, Day 1, BID, solvent control 2.03): 1.94 copy number/μL | Log HBV DNA mean value (HBV [4]; plasma, Day 1, QD, solvent control 2.03): 2.10 copy number/μL | Log HBV DNA mean value (HBV [4]; plasma, Day 3, BID, solvent control 4.47): 3.02 copy number/μL | Log HBV DNA mean value (HBV [4]; plasma, Day 3, QD, solvent control 4.47): 3.15 copy number/μL | Log HBV DNA mean value (HBV [4]; plasma, Day 5, BID, solvent control 4.76): 2.94 copy number/μL | Log HBV DNA mean value (HBV [4]; plasma, Day 5, QD, solvent control 4.76): 3.92 copy number/μL | Log HBV DNA mean value (HBV [4]; plasma, Day 7, BID, solvent control 3.53): 2.14 copy number/μL | Log HBV DNA mean value (HBV [4]; plasma, Day 7, QD, solvent control 3.53): 3.19 copy number/μL

C[C@H]1Cc2noc(-c3ncccn3)c2CN1C(=O)Nc1ccc(F)c(Cl)c1 [Example 24]
EC50 [2]: 15.6 nM

C[C@H]1Cc2noc(-c3ncccn3)c2CN1C(=O)Nc1cc(F)c(F)c(F)c1 [Example 25]
EC50 [2]: 14.9 nM

C[C@H]1Cc2noc(-c3ncccn3)c2CN1C(=O)Nc1ccc(F)c(F)c1 [Example 26]
EC50 [2]: 19.1 nM
